The record followed here is US10723695B2, “Microbiocidal phenylamidine derivatives” (SYNGENTA PARTICIPATIONS AG, priority 2015, dated 2020).

The test system of data set [1] is Puccinia recondita f. sp. tritici. Briefly: Puccinia recondita f. sp. tritici / wheat / leaf disc curative (brown rust). Format: in vivo. As to conditions: foliar, 24 h, wheat leaf segments cv. Kanzler, curative (applied 1 day after inoculation), compared to untreated control leaf disks, read-out: disease control. Here is the method: Puccinia recondita f. sp. tritici/Wheat/Leaf Disc Curative (Brown Rust) Wheat leaf segments cv. Kanzler are placed on agar in multiwell plates (24-well format). The leaf segments are inoculated with a spore suspension of the fungus. Plates were stored in darkness at 19° C. and 75% rh. The formulated test compound diluted in water was applied 1 day after inoculation.

Data set [2] has the same test system. Briefly: Puccinia recondita f. sp. tritici / wheat / leaf disc preventative (brown rust). The format is in vivo. As to conditions: foliar, wheat leaf segments cv. Kanzler, compared to untreated control leaf disks, read-out: disease control. In a few lines:
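Wheat leaf segments (cv. Kanzler) on agar were sprayed preventatively with formulated compound diluted in water and inoculated with spores 1 day later. They were incubated at 19 °C, 75% rh, 12 h light/12 h dark. Percent disease control versus untreated was scored 7-9 days after application.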

The test system of the next data set is Phakopsora pachyrhizi. Briefly: Phakopsora pachyrhizi / soybean / leaf disk preventative (soybean rust). Format: in vivo. The settings on record: foliar, soybean leaf disks, compared to untreated control leaf disks, read-out: disease control. Put shortly: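 Four-week-old soybean plants sprayed with formulated compound in water; leaf disks cut 1 day later, inoculated on the lower surface with spore suspension. Held 24-36 h dark at 20° C, 75% rh, then 20° C with 12 h light/day; % diseased disk area scored 12-14 days after application.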

Data set [3] deals with Blumeria graminis f. sp. tritici (Erysiphe graminis f. sp. tritici). Briefly: Blumeria graminis f. sp. tritici / wheat / leaf disc preventative (powdery mildew on wheat). The settings on record: foliar, wheat leaf segments cv. Kanzler, compared to untreated control leaf disks, read-out: disease control. Format: in vivo. From the text: Blumeria graminis f. sp. tritici (Erysiphe graminis f. sp. tritici)/Wheat/Leaf Disc Preventative (Powdery Mildew on Wheat) Wheat leaf segments cv. Kanzler were placed on agar in a multiwell plate (24-well format) and sprayed with the formulated test compound diluted in water. The leaf disks were inoculated by shaking powdery mildew infected plants above the test plates 1 day after application.

A value given as a limit tells only on which side of the number the result lay.

Take `CCN(C)/C=N/c1cc(OC)c(C(O)(c2ccccc2Br)C(F)(F)F)cc1C` (stereo not drawn) [Compound E1.035]: the melting point fell in the range of 114 to 116 °C. Also, in data set [1], the pest or weed control at 200 ppm was no less than 80%. The pest or weed control at 200 ppm in data set [2] is no less than 80%. Besides, the pest or weed control at 200 ppm in the data set on Phakopsora pachyrhizi is no less than 80%. Moreover, the pest or weed control at 200 ppm in data set [3] was no less than 80%.
Molecule `CCN(C)/C=N/c1cc(OC)c(C(O)(C2CC2)C(F)(F)F)cc1C` (stereo not drawn) [Compound E1.052] returned a melting point of 64 to 72 °C. In addition, the pest or weed control at 200 ppm in data set [1] was no less than 80%. In addition, the pest or weed control at 200 ppm in data set [2] was no less than 80%. The pest or weed control at 200 ppm in the data set on Phakopsora pachyrhizi was no less than 80%. In data set [3], the pest or weed control at 200 ppm is no less than 80%.
As for `CCC(O)(c1cc(C)c(/N=C/N(C)C(C)C)cc1OC)C(F)(F)F` (stereo not drawn) [Compound E1.063], the melting point lay within 73 to 76 °C. Also, the pest or weed control at 200 ppm in data set [1] is no less than 80%. Also, the pest or weed control at 200 ppm in data set [2] was no less than 80%. Further, the pest or weed control at 200 ppm in the data set on Phakopsora pachyrhizi was no less than 80%. The pest or weed control at 200 ppm in data set [3] is no less than 80%.
For the molecule `COc1cc(/N=C/N(C)C(C)C)c(C)cc1C(O)(C1CC1)C(F)(F)F` (stereo not drawn) [Compound E1.064], the melting point is 90 to 93 °C. Moreover, the pest or weed control at 200 ppm in data set [1] is no less than 80%. In addition, the pest or weed control at 200 ppm in data set [2] was no less than 80%. The pest or weed control at 200 ppm in the data set with Phakopsora pachyrhizi is no less than 80%. Moreover, in data set [3], the pest or weed control at 200 ppm is no less than 80%.
Consider `COc1cc(/N=C/N(C)C(C)C)c(C)cc1C(O)(C(C)C)C(F)(F)F` (stereo not drawn) [Compound E1.067], for which the melting point was 78 to 79 °C. For the same molecule, the pest or weed control at 200 ppm in data set [1] is no less than 80%. The pest or weed control at 200 ppm in data set [2] was no less than 80%. The pest or weed control at 200 ppm in the data set with Phakopsora pachyrhizi is no less than 80%. The pest or weed control at 200 ppm in data set [3] was no less than 80%.
In the case of `C=CCC(O)(c1cc(C)c(/N=C/N(C)CC)cc1OC)C(F)(F)F` (stereo not drawn) [Compound E1.071], the melting point was in the range of 123 to 127 °C. Further, the pest or weed control at 200 ppm in data set [1] was no less than 80%. In data set [2], the pest or weed control at 200 ppm is no less than 80%. Also, in the data set with Phakopsora pachyrhizi, the pest or weed control at 200 ppm was no less than 80%. Also, in data set [3], the pest or weed control at 200 ppm was no less than 80%.
The molecule `C=C(C)C(O)(c1cc(C)c(/N=C/N(C)C(C)C)cc1OC)C(F)(F)F` (stereo not drawn) [Compound E1.081] registered a melting point of 110 to 113 °C. For the same molecule, in data set [1], the pest or weed control at 200 ppm was no less than 80%. The pest or weed control at 200 ppm in data set [2] is no less than 80%. In the data set with Phakopsora pachyrhizi, the pest or weed control at 200 ppm was no less than 80%. In data set [3], the pest or weed control at 200 ppm is no less than 80%.
In the case of `C=C(C)CC(O)(c1cc(C)c(/N=C/N(C)C(C)C)cc1OC)C(F)(F)F` (stereo not drawn) [Compound E1.082], the melting point fell in the range of 90 to 95 °C. Further, the pest or weed control at 200 ppm in data set [1] was no less than 80%. For the same molecule, in data set [2], the pest or weed control at 200 ppm was no less than 80%. Also, the pest or weed control at 200 ppm in the data set on Phakopsora pachyrhizi was no less than 80%. For the same molecule, in data set [3], the pest or weed control at 200 ppm is no less than 80%.
Consider `C=CCC(O)(c1cc(C)c(/N=C/N(C)C(C)C)cc1OC)C(F)(F)F` (stereo not drawn) [Compound E1.084], for which the melting point was in the range of 45 to 50 °C. The pest or weed control at 200 ppm in data set [1] is no less than 80%. For the same molecule, the pest or weed control at 200 ppm in data set [2] is no less than 80%. In addition, in the data set on Phakopsora pachyrhizi, the pest or weed control at 200 ppm was no less than 80%. Also, in data set [3], the pest or weed control at 200 ppm was no less than 80%.
In turn, `CCN(C)/C=N/c1cc(OC)c(C(O)(Cc2cc(C)ncn2)C(F)(F)F)cc1C` (stereo not drawn) [Compound E1.099] gave a melting point of 82 to 85 °C. Further, the pest or weed control at 200 ppm in data set [1] is no less than 80%. Also, the pest or weed control at 200 ppm in data set [2] was no less than 80%. Besides, the pest or weed control at 200 ppm in the data set with Phakopsora pachyrhizi was no less than 80%. Besides, the pest or weed control at 200 ppm in data set [3] is no less than 80%.
Molecule `CCN(C)/C=N/c1cc(OC)c(C(O)(Cc2cccc(OC)n2)C(F)(F)F)cc1C` (stereo not drawn) [Compound E1.100] came in with a melting point of 92 to 95 °C. Also, the pest or weed control at 200 ppm in data set [1] was no less than 80%. The pest or weed control at 200 ppm in data set [2] was no less than 80%. The pest or weed control at 200 ppm with Phakopsora pachyrhizi is no less than 80%. Also, in data set [3], the pest or weed control at 200 ppm is no less than 80%.
As to `CCN(C)/C=N/c1cc(OC)c(C(O)(CC)c2ccccc2)cc1C` (stereo not drawn) [Compound E1.126], the melting point fell in the range of 87 to 89 °C. Further, in data set [1], the pest or weed control at 200 ppm is no less than 80%. The pest or weed control at 200 ppm in data set [2] is no less than 80%. The pest or weed control at 200 ppm with Phakopsora pachyrhizi is no less than 80%. In addition, in data set [3], the pest or weed control at 200 ppm is no less than 80%.
